Values of other authors as cited in patent publication US6071521A, “Pharmaceutical composition having an antitumor activity and a process for preparation thereof” (priority 1989, dated 2000).

Conditions: water, alcohol, chloroform, and chlorinated ethylene

For `C=C1C=CC(=O)O1` [protoanemonin, Protoanemonin], the solubility is given as “dissolved in water, alcohol, chloroform, and chlorinated ethylene”.
